Experimental data as given in ChEMBL document CHEMBL3045524, “Development of a new acaricide, cyflumetofen” (J Pestic Sci, 2012).
≈ marks a conversion by molar mass, not a printed value.

What was measured:
[1] = Solubility of the compound in water; format: physicochemical
[2] = Octanol-water partition co-efficient, log P of the compound; format: physicochemical
Tetranychus urticae [3] = test: Acaricidal activity against Tetranychus urticae (two-spotted spider mite) adult; format: functional
Panonychus citri = test: Acaricidal activity against Panonychus citri at developmental stages; format: functional
Tetranychus urticae [4] = test: Acaricidal activity against Tetranychus urticae (two-spotted spider mite) larvae; format: functional
Tetranychus kanzawai = test: Acaricidal activity against Tetranychus kanzawai at developmental stages; format: functional

For `COCCOC(=O)C(C#N)(C(=O)c1ccccc1C(F)(F)F)c1ccc(C(C)(C)C)cc1` (racemic) [CYFLUMETOFEN], the solubility [1] was 0.0281 µg/mL (≈ 0.0628 µM), the logP [2] was 4.3 and the LC50 (Tetranychus urticae [3]) was 4.8 µg/mL (≈ 10.7 µM). The LC50 (Panonychus citri) was < 5 µg/mL, the LC50 (Tetranychus urticae [4]) was 0.9 µg/mL (≈ 2.01 µM) and the LC50 (Tetranychus kanzawai) was < 5 µg/mL.
